# Laboratory results published in a melting point compilation (Tetko et al.; mined from patent text by program, amines drawn as free bases though some values may be those of a salt).
row,Structure (SMILES),melting point
1,COc1cc2c(cc1S(=O)(=O)c1ccc(OCc3ccc(Cl)cc3)cc1)CCN(C)CC2,120 to 122 °C
2,O=C(O)Cc1ccc(OCc2ccc3oc([N+](=O)[O-])c(-c4ccccc4)c3c2)cc1,179 to 180 °C
3,COC1C(O)C(CO)OC1n1ccc(=O)[nH]c1=O (stereo not drawn),158 to 159 °C
4,COc1ccccc1N1CCN(CCCN2C(=O)c3ccccc3C2=O)CC1,85 to 93 °C
5,COc1ccc(S(=O)(=O)N2C(=O)C(c3ccccc3OC)(N3CCC[C@H]3C(=S)N(C)C)c3cc(Cl)ccc32)c(OC)c1 (stereo partly drawn),164 °C
6,CCOC(=O)c1cc2ccccc2n1CC1CC(=O)N(Cc2ccccc2)C1 (stereo not drawn),93 to 94 °C
7,CCCCn1cc(C(=O)O)c2ccc(Cl)cc21,149 to 151 °C
8,COc1cc2c(cc1O)CCN(C(C)=O)C2,139 to 140 °C
9,O=C(O)C1CSC(c2ccccc2OCCCCO[N+](=O)[O-])N1 (stereo not drawn),108 to 110 °C
10,CC(C)(C)NS(=O)(=O)c1cc2c(s1)S(=O)(=O)NCC2=O,170 to 172 °C
11,CN(C)CC1CN(C)C(=S)c2cccnc2O1 (stereo not drawn),178 to 179 °C
12,Nc1cc2c(cc1Cl)N1CCCN=C1C2=O,> 270 °C
13,CC(=O)Oc1c(C(C)(C)C)cc(C=[N+]([O-])CC(C)C)cc1C(C)(C)C,177 to 180 °C
14,CC(C)Oc1ccc2nc3ccc(C(=O)O)cn3c(=O)c2c1,256 to 267 °C
15,CC(C)(C)CC(=O)c1c(-c2ccc3cc(OCC(=O)O)ccc3c2)oc2ccccc12,207 to 209 °C
16,Cc1ccc2c(c1)N=C(N1CCN(C)CC1)c1cc(Br)cc3c1N2CC3,187 to 189 °C
17,COC(=O)c1sccc1C(C)=O,59 to 60 °C
18,O=C(O)[C@@H]1CCCC[C@H]1C(=O)CS (relative stereo),112 to 117 °C
19,COCOc1ccc(-n2nc(C(F)(F)F)cc2-c2ccc(S(C)(=O)=O)cc2)cc1,96 to 97 °C
20,COc1ccc(C2=NN(Cc3ccc([N+](=O)[O-])cc3)C(=O)CC2)cc1OC,126 °C
21,O=C(O)C(=O)c1cc(F)c(OCCOc2ccc3ccccc3c2)c(F)c1,129 to 130 °C
22,CN1Cc2c(C#CC3CC3)ncn2-c2cccc(Cl)c2C1=O,177 to 178 °C
23,CCOC(=O)c1ccc(CCCCN2C(=O)c3ccccc3C2=O)cc1,85 to 86 °C
24,CN1C(=O)C2C3C=CC(C3)C2(c2ccc3c(c2)OCO3)C1=O (stereo not drawn),116 to 118 °C
25,CC(C)n1nc(-c2c(-c3ccccc3)nc(N)nc2N(C)C)ccc1=O,293 to 296 °C

row,Structure (SMILES),melting point
1,CC(=O)Nc1nc(S(=O)(=O)Cl)n[nH]1,177 °C
2,CNCCC1CCc2cc(OCc3ccc(-c4ccccc4)cc3)ccc2C1 (stereo not drawn),75 to 76 °C
3,CC(C)(C)NC(=S)N1CCN(c2cnccn2)CC1,153 to 156 °C
4,CC(=O)Nc1ccc(NCC(=O)C23CC4CC(CC(C4)C2)C3)cc1,156 to 158 °C
5,CCOC(=O)/C=C/c1c(C)nn(Cc2ccc(OCc3nc(-c4ccccc4)oc3C)cc2)c1C,98 to 99 °C
6,COc1cc(N)c(Cl)cc1C(=O)N[C@H]1CCN(CCCCNc2ncccn2)C[C@H]1OC (relative stereo),115 °C
7,CN1CCN(c2cccc(Nc3nc4c(-c5cnn(-c6ccc(F)cc6)c5)cccn4n3)c2)CC1,216 to 218 °C
8,CSC(=N[N+](=O)[O-])N(C)C(C)=O,40 to 41 °C
9,COc1ccc(-c2ccc(C=O)c(Cl)c2)cc1F,116 to 118 °C
10,CCOC(=O)c1cccc2nc(CC)n(Cc3ccc(-c4ccccc4-c4nnn[nH]4)cc3)c12,188 to 189 °C
11,"CC1CCC2CC(=O)N(Cc3ccccc3)C3OC4(C)CCC1C23OO4 (single isomer, unassigned; (-))",177 to 179 °C
12,O[C@@H]1CCCC[C@H]1N=Cc1ccccc1 (relative stereo),86 °C
13,CCCCC(=O)Nc1c(OC)cccc1[N+](=O)[O-],113 to 114 °C
14,CCCCCCCCCCCCCCCCCCOc1cc(OCCCOc2ccccc2)cc(C(=O)N(CC(=O)O)CC(=O)O)c1,86 to 90 °C
15,O=C(Nc1ccccn1)c1cnc2c(c1O)CCCC2,> 300 °C
16,Brc1cccc2c1ccc1ccccc12,90 to 91 °C
17,CCc1cccc(C(=O)c2nc(OC)cc(OC)n2)c1N,122 to 123 °C
18,COc1ccccc1-c1ncc(-c2nnn[nH]2)c(=O)[nH]1,282 to 283 °C
19,C=C1SC(=O)N(c2ccc3cc(-c4cc5c(c(-c6cccnc6)c4)OCO5)ccc3c2)C1=O,298 to 300 °C
20,CCOC(=O)C1=C(COCCn2c(C)nnc2-c2ccccc2)NC(C)=C(C(=O)Nc2ccccn2)C1c1ccccc1Cl (stereo not drawn),167 to 169 °C
21,CC(=O)CN1CCN(c2cc3c(cc2F)c(=O)c(C(=O)O)c2n3C(C)S2)CC1 (stereo not drawn),215 to 218 °C
22,N#CCCNC(=O)c1cccc(-c2cccc3nn(Cc4cc(F)cc(Cl)c4)cc23)c1,207 to 208 °C
23,CC(C)(C)C(=O)N[C@@H](CS)C(=O)O,140 °C
24,CCCCC(Cc1ccc(OCCNC(=O)c2ccc(-c3cccc(OC)c3)cc2)cc1)C(=O)O (stereo not drawn),107 to 109 °C

# More lines, now with the values ahead:
row,melting point,Structure (SMILES)
1,305 °C,CCN1CCN(Cc2ccc(-c3cc4c(NCc5ccc(OC)nc5)ncnc4[nH]3)cc2)CC1
2,199 to 204 °C,O=C(O)CCc1cc2cc(F)c(Cl)cc2n1S(=O)(=O)c1ccccc1
3,198 to 200 °C,O=C1Nc2ccc(Cl)cc2C1(NCCO)c1ccccc1Cl (stereo not drawn)
4,168 to 170 °C,CCc1cc(OCc2ccc(-c3ccccc3-c3nnn(C(c4ccccc4)(c4ccccc4)c4ccccc4)n3)cc2)c2c(n1)COCC2
5,231 to 233 °C,Cc1nc(-n2ccc(OCc3ccc(F)cc3)cc2=O)sc1C(=O)NCc1cccnc1
6,241 to 242 °C,COc1cc(Nc2cc(-c3nnc(C)o3)ccn2)cc(C(F)(F)F)c1
7,189 to 191 °C,O=[N+]([O-])c1ccc(Cl)c(N=C2NCCCN2)c1
8,164 to 168 °C,O=C(NC(Cc1ccccc1)c1ncc(C(F)(F)F)cc1Cl)c1c(Cl)cccc1Cl (stereo not drawn)
9,249 to 250 °C,CC(C)(C)OC(=O)N1CCC(N2Cc3ccccc3NC2=NC#N)CC1
10,175 to 176 °C,O=C(N=c1ccn(-c2ccccc2)nc1)c1ccccc1
11,105 to 112 °C,COCc1cnc2c(NC(=O)c3c(Cl)cccc3Cl)ccc(C)c2c1N1CCN(C)C1=O
12,167 to 169 °C,CC(=O)c1c(O)ccc2c(C)cc(=O)oc12
13,143 °C,COc1cc2c(c(Cl)c1Cl)C(=O)C(C)(C(C)C)C2 (stereo not drawn)
14,176 to 178 °C,CC(C)C(C)(C(N)=O)N1C(=O)c2cccnc2C1=O (stereo not drawn)
15,68 to 71 °C,CC1(C)[C@@H](C(=O)Nc2cc(C(F)(F)F)n[nH]2)[C@@H]1c1ccccc1 (relative stereo)
16,216 °C,Cn1cc(-c2cccc(Br)c2)c(=O)c(-c2cccc(Br)c2)c1
17,157 to 158 °C,O=C(Nc1ccc(-c2ncon2)cc1)Oc1ccccc1
18,107 to 108 °C,CCOC(=O)[C@@H](O)[C@@H]1OC(=O)c2cc(OC)c(OS(=O)(=O)c3ccc(C)cc3)cc21
19,278 to 280 °C,CCOC(=O)c1nc(N)sc1-c1cn2ccc(C)cc2n1
20,103 to 104 °C,COCN1C(C)=C(C(=O)OCOC(=O)C(C)(C)C)C(c2cccc(Cl)c2Cl)C(C(=O)OCOC(=O)C(C)(C)C)=C1C
21,147 to 148 °C,COc1cc(OCc2nc(-c3ccco3)oc2C)ccc1COc1nn(Cc2ccccc2)cc1C=O
22,187 to 189 °C,O=[N+]([O-])c1cc(-n2ccnc2)ccc1Sc1cccc2cnccc12
23,97 to 98 °C,CC(C)N(CCON=C1c2ccccc2C2CC2c2ccccc21)C(C)C (stereo not drawn)
24,145 to 147 °C,Cc1cccc(OS(=O)(=O)c2ccc(N3CCCNC3=O)cc2)c1
25,189 °C,N#Cc1ccc(N2CC(=O)NC2=O)c(-c2cccs2)c1

row,melting point,Structure (SMILES)
1,184 °C,CC(=O)OC1CCC2C3CCc4cc(O)c(C=O)cc4C3CCC12C (stereo not drawn)
2,199 to 201 °C,CNS(=O)(=O)c1ccccc1Nc1nc(Nc2ccc3c(c2)CCN(S(C)(=O)=O)CC3)ncc1Cl
3,114 to 115 °C,Brc1ccc(C2=NOCCS2)cc1
4,142 to 143 °C,C=CCSc1cc(C(=O)O)cc(N)c1Oc1ccccc1
5,52 to 55 °C,CC(C)(C)OC(=O)N[C@@H]1CCc2ccc(OS(=O)(=O)C(F)(F)F)cc2C1
6,175 °C,CN1Cc2c(F)ccc3scc(c23)S1(=O)=O
7,272 to 273 °C,Cc1cc(N)c2cc(NC(=O)C=Cc3ccccc3C(F)(F)F)ccc2n1
8,226 to 227 °C,CC(C)(C)C(NC(=O)c1cccc(Cl)c1)Nc1c(Nc2ccc(C(F)(F)F)nc2)c(=O)c1=O (stereo not drawn)
9,84 to 86 °C,CCOC(=O)C(OCC)C(=O)Nc1cc(Cl)cc(Cl)c1 (stereo not drawn)
10,66 to 68 °C,O=C(c1cccs1)N1CCCC1
11,90 to 91 °C,C=C(c1ccc(N(C)C)cc1)c1ccc(N(C)C)cc1C
12,207 to 208 °C,CC(=O)Nc1cncc(NC(=NC#N)NC2(c3ccccc3)CCC2)c1
13,194 to 195 °C,CCOC(=O)C1C(=O)CC(C)(O)C(C(=O)OCC)C1c1cc(Br)c2oc(C)c(C)c2c1 (stereo not drawn)
14,60 to 61 °C,CC1(C)O[C@@]23CC(=O)CC[C@@]2(C)CC[C@@H]1C3
15,220 to 225 °C,O=C(NO)c1ccc(N2CCCC2)cn1
16,71 to 72 °C,Cc1cc(CCCCCOc2c(Cl)cc(-c3nnc(C)o3)cc2Cl)on1
17,85 °C,CCOCCn1cc(C2CCN(CCOc3ccc(C(=O)O)cc3)CC2)c2ccccc21
18,98 °C,CC(C)(C=O)C(O)(CCc1ccc(F)cc1)Cn1cncn1 (stereo not drawn)
19,233 to 235 °C,CCc1nc2c(N)nc3ccc(-c4ccccc4)cc3c2n1CC(C)C
20,71 to 75 °C,FC(F)(F)c1[nH]c(-c2ccc(Cl)cc2)c(C(F)(F)F)c1Br
21,200 to 205 °C,O=C(O)c1cc(S(=O)(=O)N2CCCCC2)c(Cl)cc1Cl
22,112 to 113 °C,COc1c(C)c2c(c(O)c1C/C=C(\C)CCC(=O)N1C(=O)OC[C@@H]1Cc1ccccc1)C(=O)OC2
23,129 to 133 °C,CCCCCC(C)C(C)c1cc(O)c(CN2CCN(C)CC2)c(O)c1 (stereo not drawn)
24,250 to 251 °C,O=C(O)CN1CCC(n2nc(-c3c(-c4ccccc4)nn4ccccc34)ccc2=O)C1=O (stereo not drawn)
